This note sets out measurements from ChEMBL document CHEMBL6103629 (J Med Chem, 2025).

The subject of one data set is LoVo. Kind of data set: Induction of apoptosis in human LoVo cells assessed as necrotic cells at 3 uM incubated for 24 hrs by Annexin-V-FITC-PI staining based flow cytometric analysis (reference value: 0.97 %). It counts as functional.
Data set [1] addresses Phosphatidylinositol 4,5-bisphosphate 3-kinase catalytic subunit alpha isoform (Homo sapiens, UniProt P42336). As to the kind of experiment: Inhibition of PI3Kalpha (unknown origin) preincubated for 15 mins and measured after 60 mins by Z-LYTE screening.
The nature of data set [2]: Plasma protein binding in Sprague-Dawley rat at 1 uM incubated for 5 hrs in HTD dialysis in the presence of verapamil by LC-MS/MS analysis relative to control. The conditions noted are these: read-out: PPB (converted). In kind it is ADME, cell-free.
Data set [3] is described as follows: Drug metabolism in Beagle dog plasma by LC-MS/MS analysis. It counts as ADME, cell-free, Canis lupus familiaris. Conditions: 5 h, 1 µM; call rule not given here.
The nature of data set [4]: Drug metabolism in Sprague-Dawley rat liver cells at 2 uM incubated upto 120 mins by LC-MS/MS analysis. The conditions noted are these: 2 h. In kind it is ADME, cell-based.
The next data set has as its target CYP1A2 (Homo sapiens, UniProt P05177). As to the kind of experiment: Inhibition of recombinant human CYP1A2 assessed as residual activity at 1 uM in the presence of NADPH incubated for 60 mins by LC-MS/MS analysis relative to control. In kind it is ADME. Conditions: read-out: Activity.
The target of another data set is CYP2C9 (Homo sapiens, UniProt P11712). As to the kind of experiment: Inhibition of recombinant human CYP2C9 assessed as residual activity at 1 uM in the presence of NADPH incubated for 60 mins by LC-MS/MS analysis relative to control. It counts as ADME. The conditions noted are these: read-out: Activity.
CYP2C9, sequence (P11712 whole entry): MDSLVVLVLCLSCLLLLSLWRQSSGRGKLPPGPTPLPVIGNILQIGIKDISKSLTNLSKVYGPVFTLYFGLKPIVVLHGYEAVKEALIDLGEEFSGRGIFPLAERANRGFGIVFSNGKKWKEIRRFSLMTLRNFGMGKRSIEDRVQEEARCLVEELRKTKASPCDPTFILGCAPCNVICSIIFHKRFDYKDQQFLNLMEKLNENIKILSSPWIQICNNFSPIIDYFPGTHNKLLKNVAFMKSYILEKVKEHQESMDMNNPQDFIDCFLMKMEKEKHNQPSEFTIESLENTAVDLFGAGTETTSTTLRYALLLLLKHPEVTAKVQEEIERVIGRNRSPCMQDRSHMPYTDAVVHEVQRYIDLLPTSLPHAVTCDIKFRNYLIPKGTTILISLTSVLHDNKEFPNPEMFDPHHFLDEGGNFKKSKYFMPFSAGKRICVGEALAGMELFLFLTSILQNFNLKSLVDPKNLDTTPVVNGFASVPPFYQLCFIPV
The next data set deals with Cytochrome P450 2B6 (Homo sapiens, UniProt P20813). Kind of data set: Inhibition of CYP2B6 in human liver microsomes in the presence of NADPH incubated for 60 mins by LC-MS/MS analysis. It counts as ADME, Microsome. Background: Microsomes from liver hold many membrane-bound enzymes, among them those of drug oxidation.
Cytochrome P450 2B6, sequence (P20813 whole entry): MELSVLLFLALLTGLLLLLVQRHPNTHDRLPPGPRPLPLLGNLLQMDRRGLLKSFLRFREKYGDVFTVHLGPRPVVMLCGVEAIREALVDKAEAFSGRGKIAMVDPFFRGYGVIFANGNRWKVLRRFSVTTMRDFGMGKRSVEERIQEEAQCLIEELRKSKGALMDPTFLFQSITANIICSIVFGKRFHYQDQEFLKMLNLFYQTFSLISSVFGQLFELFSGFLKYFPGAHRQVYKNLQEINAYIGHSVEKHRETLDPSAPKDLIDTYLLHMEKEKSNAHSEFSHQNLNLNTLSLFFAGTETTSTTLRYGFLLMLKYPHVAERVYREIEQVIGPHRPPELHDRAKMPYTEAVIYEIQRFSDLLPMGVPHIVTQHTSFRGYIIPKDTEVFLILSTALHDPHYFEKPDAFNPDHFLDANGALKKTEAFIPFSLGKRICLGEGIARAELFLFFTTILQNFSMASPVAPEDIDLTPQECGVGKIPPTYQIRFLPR
In another data set the target is Cytochrome P450 2D6 (Homo sapiens, UniProt P10635). As to the kind of experiment: Inhibition of CYP2D6 in human liver microsomes in the presence of NADPH incubated for 60 mins by LC-MS/MS analysis. In kind it is ADME, Microsome.
Cytochrome P450 2D6, sequence (P10635 whole entry): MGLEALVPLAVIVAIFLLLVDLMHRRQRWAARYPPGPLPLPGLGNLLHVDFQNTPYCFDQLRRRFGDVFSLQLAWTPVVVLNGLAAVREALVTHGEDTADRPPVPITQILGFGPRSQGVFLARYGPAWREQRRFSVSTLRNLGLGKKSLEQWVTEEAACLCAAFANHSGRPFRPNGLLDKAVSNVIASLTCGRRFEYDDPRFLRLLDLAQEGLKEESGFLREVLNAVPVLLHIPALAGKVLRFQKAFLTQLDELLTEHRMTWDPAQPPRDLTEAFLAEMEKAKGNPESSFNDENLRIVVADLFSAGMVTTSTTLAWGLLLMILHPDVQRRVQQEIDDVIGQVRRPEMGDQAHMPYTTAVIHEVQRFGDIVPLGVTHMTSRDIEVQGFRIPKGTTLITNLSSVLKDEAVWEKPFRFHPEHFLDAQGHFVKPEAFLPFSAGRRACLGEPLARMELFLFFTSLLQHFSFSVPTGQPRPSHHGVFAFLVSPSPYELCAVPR
A further data set has as its target Cytochrome P450 2C8 (Homo sapiens, UniProt P10632). As to the kind of experiment: Inhibition of CYP2C8 in human liver microsomes in the presence of NADPH incubated for 60 mins by LC-MS/MS analysis. In kind it is ADME, Microsome.
Data set [5] can be described thus: Induction of CYP1A2 mRNA expression in human primary hepatocyte isolated from DZM donor at 0.1 to 10 uM incubated for 72 hrs by real-time PCR analysis. In kind it is ADME, cell-based. Conditions: hepatocytes, dose 0.1-10 µM. For orientation: Quantitative PCR measures a nucleic acid by following its amplification.
Data set [6] can be described thus: Induction of CYP1A2 mRNA expression in human primary hepatocyte isolated from RAS donor at 0.1 to 10 uM incubated for 72 hrs by real-time PCR analysis. It counts as ADME, cell-based. The conditions noted are these: hepatocytes, dose 0.1-10 µM.
Data set [7] in a line: Induction of CYP2B6 mRNA expression in human primary hepatocyte isolated from DZM donor at 0.1 to 10 uM incubated for 72 hrs by real-time PCR analysis. In kind it is ADME, cell-based. The conditions noted are these: hepatocytes, dose 0.1-10 µM.
Data set [8] in a line: Induction of CYP2B6 mRNA expression in human primary hepatocyte isolated from RAS donor at 0.1 to 10 uM incubated for 72 hrs by real-time PCR analysis. The conditions noted are these: hepatocytes, dose 0.1-10 µM. It counts as ADME, cell-based.
The subject of another data set is JeKo-1. As to the kind of experiment: Antitumor activity against human JeKo-1 cells xenografted in female CB17 SCID mouse assessed as tumor growth inhibition at 40 mg/kg BID, po administered as 3 days on and 4 days off schedule for 24 days relative to control. Conditions: JeKo-1, 576 h, time 24 day, read-out: TGI. In kind it is functional. On the technique in general: Xenograft models place foreign cells or tissue in a host animal.

Molecules are shown by their SMILES.

Cytochrome P450 2C8, sequence (P10632 whole entry): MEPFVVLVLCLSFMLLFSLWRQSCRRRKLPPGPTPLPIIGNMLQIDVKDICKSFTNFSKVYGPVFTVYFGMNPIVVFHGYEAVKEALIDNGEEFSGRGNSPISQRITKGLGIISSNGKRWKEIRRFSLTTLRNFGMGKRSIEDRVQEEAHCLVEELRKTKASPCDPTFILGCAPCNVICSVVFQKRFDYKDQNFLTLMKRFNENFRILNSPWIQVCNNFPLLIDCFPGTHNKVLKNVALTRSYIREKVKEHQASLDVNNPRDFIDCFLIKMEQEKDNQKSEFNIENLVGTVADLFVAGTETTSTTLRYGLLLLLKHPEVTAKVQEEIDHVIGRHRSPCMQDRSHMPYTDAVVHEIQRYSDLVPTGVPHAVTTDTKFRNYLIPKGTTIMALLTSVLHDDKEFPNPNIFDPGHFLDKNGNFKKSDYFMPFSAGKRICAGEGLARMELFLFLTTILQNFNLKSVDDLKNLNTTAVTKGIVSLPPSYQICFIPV
Phosphatidylinositol 4,5-bisphosphate 3-kinase catalytic subunit alpha isoform, sequence (P42336 whole entry, canonical isoform): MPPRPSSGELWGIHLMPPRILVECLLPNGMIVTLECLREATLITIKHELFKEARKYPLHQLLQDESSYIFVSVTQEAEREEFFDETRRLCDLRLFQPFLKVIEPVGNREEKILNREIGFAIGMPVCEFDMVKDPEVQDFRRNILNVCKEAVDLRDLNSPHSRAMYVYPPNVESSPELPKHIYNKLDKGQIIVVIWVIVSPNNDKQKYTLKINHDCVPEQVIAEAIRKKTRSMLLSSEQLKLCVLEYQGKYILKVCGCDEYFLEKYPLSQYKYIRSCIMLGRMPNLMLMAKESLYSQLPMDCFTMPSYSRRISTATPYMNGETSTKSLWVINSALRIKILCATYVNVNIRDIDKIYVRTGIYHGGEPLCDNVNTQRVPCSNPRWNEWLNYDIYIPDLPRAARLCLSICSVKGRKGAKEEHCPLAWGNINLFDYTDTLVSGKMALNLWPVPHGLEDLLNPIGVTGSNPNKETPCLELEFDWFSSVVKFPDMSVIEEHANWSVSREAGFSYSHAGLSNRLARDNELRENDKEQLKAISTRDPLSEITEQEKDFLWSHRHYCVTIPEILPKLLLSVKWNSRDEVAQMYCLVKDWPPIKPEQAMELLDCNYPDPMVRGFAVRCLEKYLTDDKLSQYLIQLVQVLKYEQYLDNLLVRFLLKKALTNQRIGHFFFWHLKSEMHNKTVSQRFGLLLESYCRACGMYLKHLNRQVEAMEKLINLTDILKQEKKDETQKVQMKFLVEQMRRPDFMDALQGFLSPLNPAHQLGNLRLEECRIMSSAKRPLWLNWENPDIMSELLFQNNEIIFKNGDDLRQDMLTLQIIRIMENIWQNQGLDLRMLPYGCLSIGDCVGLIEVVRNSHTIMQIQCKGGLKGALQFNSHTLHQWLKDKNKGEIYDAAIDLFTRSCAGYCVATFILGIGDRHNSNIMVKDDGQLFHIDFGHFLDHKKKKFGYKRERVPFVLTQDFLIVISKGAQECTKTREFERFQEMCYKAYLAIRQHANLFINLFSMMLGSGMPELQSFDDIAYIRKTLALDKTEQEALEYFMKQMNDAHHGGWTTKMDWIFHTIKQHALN
CYP1A2, sequence (P05177 whole entry): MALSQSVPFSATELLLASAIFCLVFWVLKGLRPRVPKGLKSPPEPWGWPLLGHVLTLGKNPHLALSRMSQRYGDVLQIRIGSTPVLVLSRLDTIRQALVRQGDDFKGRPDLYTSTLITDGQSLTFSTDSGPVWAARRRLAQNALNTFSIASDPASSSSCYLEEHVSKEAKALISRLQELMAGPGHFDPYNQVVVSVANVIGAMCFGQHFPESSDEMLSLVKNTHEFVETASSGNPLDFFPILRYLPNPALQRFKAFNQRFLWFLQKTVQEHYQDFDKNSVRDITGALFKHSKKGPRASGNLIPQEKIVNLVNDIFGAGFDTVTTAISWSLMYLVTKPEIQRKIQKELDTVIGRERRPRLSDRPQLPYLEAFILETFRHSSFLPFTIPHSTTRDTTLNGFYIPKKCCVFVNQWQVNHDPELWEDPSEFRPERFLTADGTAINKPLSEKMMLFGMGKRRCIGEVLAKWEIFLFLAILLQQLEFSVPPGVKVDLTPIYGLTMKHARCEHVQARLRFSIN

Usually IC50 stands for the concentration needed to halve the response being measured. Consider `Cc1nn(-c2cccnc2)c(C)c1-c1cc(N2CC3CCC(C2)O3)nc2c(-c3ccn[nH]3)cnn12.O=C(O)/C=C/C(=O)O`, for which the Activity in the data set with LoVo is 2.65%; in [5], “Not_active”; in [6], “Not_active”; in [7], “Active”; in [8], “Active”. The IC50 was 3.58 µM in [1], over 100 µM on Cytochrome P450 2B6, over 100 µM on Cytochrome P450 2D6 and 37.1 µM on Cytochrome P450 2C8. In data set [2], the fraction unbound at 5 h, 1 µM was 0.136. The Drug metabolism entry in data set [3] was “metabolite_notdetected”; in data set [4], “metabolite_detected”. The activity at 1 h, 1 µM at CYP1A2 was found to be 105%; at CYP2C9, 102%. The inhibition in vivo at 40 mg/kg in the data set on JeKo-1 amounted to 90.6%.
